From patent US20060069132A1, “Azolecarboxamide herbicides” (priority 2004, published 2006)

Columns and labels:
lambsquarters = experiment: Test B pre-/postemergence herbicide test; assay type: in vivo, Chenopodium album
In short: (§1)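 Flooded paddy rice and barnyardgrass were treated at the 2-leaf stage; upland plantings received compound either on sown seed or on 1- to 4-leaf seedlings. All were kept 13–15 days in a greenhouse and scored visually, 0–100, relative to untreated plants.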

rice [1] = experiment: Test B pre-/postemergence herbicide test; assay type: in vivo, Oryza sativa
In short: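 Evaluation is visual, comparing treated with control plants on a scale where 0 means no effect and 100 means full control. Treatments were preemergence, or postemergence on seedlings 2–18 cm tall, and held 13–15 days in the greenhouse.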

corn = experiment: Test B pre-/postemergence herbicide test; assay type: in vivo, Zea mays
In short: as §1

Surinam grass = experiment: Test B pre-/postemergence herbicide test; assay type: in vivo, Urochloa decumbens
In short: as §1

[2] = test system: small flower umbrella sedge; experiment: Test B flooded paddy test; assay type: in vivo, Cyperus difformis; conditions: 1000 g ai/ha, visual rating, scale 0 to 100 (0 no effect, 100 complete control), 13 to 15 days
In short: (§2)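 Treated at 2-leaf (paddy) or 1–4-leaf, 2–18 cm (postemergence); greenhouse 13–15 d; visual score vs control, 0 none to 100 complete control; dash = not tested.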

wild oat = experiment: Test B postemergence herbicide test; assay type: in vivo, Avena fatua; conditions: scale 0 (no effect) to 100 (complete control)
In short: (§3)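 Visual ratings, 0 (no effect) to 100 (complete control), made versus controls after 13–15 d greenhouse. Paddy plants treated at 2-leaf stage; postemergence plants at 1- to 4-leaf stage, 2–18 cm tall.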

wheat = experiment: Test B postemergence herbicide test; assay type: in vivo, Triticum aestivum; parameters: key to Wheat plant response rating: 0 = no effect, 100 = complete control; conditions: scale 0 (no effect) to 100 (complete control)
In short: as §3

morningglory [3] = experiment: Test A pre-/postemergence herbicide test; assay type: in vivo, Ipomoea spp.; conditions: for Plant response rating, Morningglory: Postemergence; for Morningglory plant response rating: Preemergence
In short: (§4)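 Visual injury rating on a 0–100 scale (0 no effect, 100 complete control) versus untreated controls, about ten days after treatment in greenhouse. Pre: directed soil spray onto seeded sandy loam. Post: spray to runoff on plants 2–10 cm tall at one- to two-leaf stage.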

redroot pigweed = experiment: Test A pre-/postemergence herbicide test; assay type: in vivo, Amaranthus retroflexus; conditions: for Plant response rating, Pigweed: Postemergence; for Pigweed plant response rating: Preemergence
In short: as §4

barnyardgrass [4] = experiment: Test B flooded paddy test; assay type: in vivo, Echinochloa crus-galli; conditions: 1000 g ai/ha, visual rating, scale 0 to 100 (0 no effect, 100 complete control), 13 to 15 days
In short: as §2

large crabgrass [5] = experiment: Test B pre-/postemergence herbicide test; assay type: in vivo, Digitaria sanguinalis
In short: as §1

barnyardgrass [6] = experiment: Test B pre-/postemergence herbicide test; assay type: in vivo, Echinochloa crus-galli
In short: (§5)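 Herbicidal effect was judged by eye on a 0–100 scale after plants stood 13 to 15 days in the greenhouse following pre- or postemergence treatment with surfactant-containing formulations.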

ducksalad = experiment: Test B flooded paddy test; assay type: in vivo, Heteranthera limosa; conditions: 1000 g ai/ha, visual rating, scale 0 to 100 (0 no effect, 100 complete control), 13 to 15 days
In short: as §2

morningglory [7] = experiment: Test B pre-/postemergence herbicide test; assay type: in vivo, Ipomoea coccinea
In short: as §5

giant foxtail [8] = experiment: Test B pre-/postemergence herbicide test; assay type: in vivo, Setaria faberi
In short: as §1

giant foxtail [9] = experiment: Test A pre-/postemergence herbicide test; assay type: in vivo, Setaria faberi; conditions: for Plant response rating, Foxtail, Giant: Postemergence; for Foxtail, Giant plant response rating: Preemergence
In short: as §4

large crabgrass [10] = experiment: Test A pre-/postemergence herbicide test; assay type: in vivo, Digitaria sanguinalis; conditions: for Plant response rating, Crabgrass, Large: Postemergence; for Crabgrass, Large plant response rating: Preemergence
In short: as §4

velvetleaf [11] = experiment: Test A pre-/postemergence herbicide test; assay type: in vivo, Abutilon theophrasti; conditions: for Velvetleaf plant response rating: Preemergence
In short: as §4

pigweed = experiment: Test B pre-/postemergence herbicide test; assay type: in vivo, Amaranthus retroflexus
In short: as §1

barnyardgrass [12] = experiment: Test A pre-/postemergence herbicide test; assay type: in vivo, Echinochloa crus-galli; conditions: for Plant response rating, Barnyardgrass: Postemergence; for Barnyardgrass plant response rating: Preemergence
In short: as §4

velvetleaf [13] = experiment: Test B pre-/postemergence herbicide test; assay type: in vivo, Abutilon theophrasti
In short: as §1

cocklebur = experiment: Test B pre-/postemergence herbicide test; assay type: in vivo, Xanthium strumarium
In short: as §5

blackgrass = experiment: Test B postemergence herbicide test; assay type: in vivo, Alopecurus myosuroides; conditions: scale 0 (no effect) to 100 (complete control)
In short: as §2

rice [14] = experiment: Test B flooded paddy test; assay type: in vivo, Oryza sativa; conditions: 1000 g ai/ha, visual rating, scale 0 to 100 (0 no effect, 100 complete control), 13 to 15 days
In short: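 After treating 2-leaf paddy plants or 2–18 cm postemergence plants (1 to 4 leaves) with formulated chemical, researchers kept them in a greenhouse for 13–15 days. Effects were judged visually versus controls: 0 indicates none, 100 total control.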

[15] = Postemergence, 500 g ai/ha, visual rating after 13 to 15 days, scale 0 (no effect) to 100 (complete control)
[16] = Preemergence, 500 g ai/ha, scale 0 to 100
[17] = postemergence, 125 g ai/ha, visual rating, scale 0 (no effect) to 100 (complete control)
[18] = preemergence, 125 g ai/ha, 0 to 100 scale, 0 is no effect, 100 is complete control
[19] = Postemergence, 500 g ai/ha, visual rating after 13 to 15 days
[20] = postemergence, 125 g ai/ha, visual rating
[21] = 500 g ai/ha, 0 to 100 scale, 0 no effect, 100 complete control
[22] = 2000 g ai/ha, 0 to 100 scale, 0 no effect, 100 complete control
[23] = 500 g ai/ha, visual rating, 0 to 100 scale (0 no effect, 100 complete control)

CCn1nc(C(C)(C)C)cc1C(=O)Nc1cccc2c1CNC2=O [Compound 52]
Plant response rating, Lambsquarters (lambsquarters; [15]): 80
Lambsquarters plant response rating (lambsquarters; [16]): 90
Lambsquarters plant response rating (lambsquarters; [17]): 0
Plant response rating, Lambsquarters (lambsquarters; [18]): 0
Rice plant response rating (rice [1]; [16]): 80
Plant response rating, Rice (rice [1]; [18]): 0
Plant response rating, Corn (corn; [15]): 40
Corn plant response rating (corn; [16]): 0
Corn plant response rating (corn; [17]): 10
Plant response rating, Corn (corn; [18]): 0
Plant response rating, Surinam Grass (Surinam grass; [15]): 0
Surinam Grass plant response rating (Surinam grass; [16]): 30
Surinam Grass plant response rating (Surinam grass; [17]): 0
Plant response rating, Surinam Grass (Surinam grass; [18]): 0
Sedge, Umbrella plant response rating [2]: 40
Plant response rating, Oat, Wild (wild oat; [19]): 10
Oat, Wild plant response rating (wild oat; [20]): 0
Plant response rating, Wheat (wheat; [19]): 0
Wheat plant response rating (wheat; [20]): 0
Plant response rating, Morningglory (morningglory [3]; [21]): 0
Plant response rating, Morningglory (morningglory [3]; [22]): 0
Morningglory plant response rating (morningglory [3]; [23]): 0
Morningglory plant response rating (morningglory [3]; [22]): 10
Plant response rating, Pigweed (redroot pigweed; [21]): 30
Plant response rating, Pigweed (redroot pigweed; [22]): 35
Pigweed plant response rating (redroot pigweed; [23]): 90
Pigweed plant response rating (redroot pigweed; [22]): 90
Barnyardgrass plant response rating (barnyardgrass [4]): 20
Plant response rating, Crabgrass, Large (large crabgrass [5]; [15]): 10
Crabgrass, Large plant response rating (large crabgrass [5]; [16]): 90
Crabgrass, Large plant response rating (large crabgrass [5]; [17]): 0
Plant response rating, Crabgrass, Large (large crabgrass [5]; [18]): 20
Plant response rating, Barnyardgrass (barnyardgrass [6]; [15]): 0
Barnyardgrass plant response rating (barnyardgrass [6]; [16]): 60
Barnyardgrass plant response rating (barnyardgrass [6]; [17]): 0
Plant response rating, Barnyardgrass (barnyardgrass [6]; [18]): 10
Ducksalad plant response rating (ducksalad): 20
Plant response rating, Morningglory (morningglory [7]; [15]): 0
Morningglory plant response rating (morningglory [7]; [16]): 0
Morningglory plant response rating (morningglory [7]; [17]): 0
Plant response rating, Morningglory (morningglory [7]; [18]): 0
Plant response rating, Foxtail, Giant (giant foxtail [8]; [15]): 10
Foxtail, Giant plant response rating (giant foxtail [8]; [16]): 60
Foxtail, Giant plant response rating (giant foxtail [8]; [17]): 10
Plant response rating, Foxtail, Giant (giant foxtail [8]; [18]): 10
Plant response rating, Foxtail, Giant (giant foxtail [9]; [21]): 25
Plant response rating, Foxtail, Giant (giant foxtail [9]; [22]): 25
Foxtail, Giant plant response rating (giant foxtail [9]; [23]): 20
Foxtail, Giant plant response rating (giant foxtail [9]; [22]): 60
Plant response rating, Crabgrass, Large (large crabgrass [10]; [21]): 0
Plant response rating, Crabgrass, Large (large crabgrass [10]; [22]): 20
Crabgrass, Large plant response rating (large crabgrass [10]; [23]): 70
Crabgrass, Large plant response rating (large crabgrass [10]; [22]): 90
Plant response rating, Velvetleaf (velvetleaf [11]; Postemergence, 2000 g ai/ha, 0 to 100 scale, 0 no effect, 100 complete control): 20
Velvetleaf plant response rating (velvetleaf [11]; [23]): 15
Velvetleaf plant response rating (velvetleaf [11]; [22]): 50
Plant response rating, Pigweed (pigweed; [15]): 10
Pigweed plant response rating (pigweed; [16]): 90
Pigweed plant response rating (pigweed; [17]): 0
Plant response rating, Pigweed (pigweed; [18]): 0
Plant response rating, Barnyardgrass (barnyardgrass [12]; [21]): 25
Plant response rating, Barnyardgrass (barnyardgrass [12]; [22]): 55
Barnyardgrass plant response rating (barnyardgrass [12]; [23]): 25
Barnyardgrass plant response rating (barnyardgrass [12]; [22]): 90
Plant response rating, Velvetleaf (velvetleaf [13]; [15]): 20
Velvetleaf plant response rating (velvetleaf [13]; [16]): 20
Velvetleaf plant response rating (velvetleaf [13]; [17]): 10
Plant response rating, Velvetleaf (velvetleaf [13]; [18]): 0
Plant response rating, Cocklebur (cocklebur; [15]): 40
Cocklebur plant response rating (cocklebur; [16]): 10
Cocklebur plant response rating (cocklebur; [17]): 20
Plant response rating, Cocklebur (cocklebur; [18]): 0
Plant response rating, Blackgrass (blackgrass; [19]): 0
Blackgrass plant response rating (blackgrass; [20]): 0
Rice plant response rating (rice [14]): 0
